Reference: PubChem BioAssay AID330 (DTP/NCI, 2004)
“And” between values parts separate entries of the source, which are not always exact repeats. Equal entries are not always repeated. Toxic doses and inconclusive results are not listed. How the source made its calls: active means survival T/C of 150% or more; inactive means T/C below 125% in these data.

System: P388 leukemia ip, CD2F1 mice, survival T/C
Assay: NCI In Vivo Anticancer Drug Screen. Data for tumor model P388 Leukemia (intraperitoneal) in CD2F1 (CDF1) mice
Details: endpoint: median survival time, higher = longer survival
Outline: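 Mice carrying the transplanted tumor received test compound or vehicle. Survival was recorded in each group, and the value is the treated-group measurement divided by that of the vehicle-treated control group.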

[1] = dose: 50.0 mg/kg/injection, schedule: Q04DX003 (ip), vehicle: saline with Tween-80
[2] = dose: 100.0 mg/kg/injection, schedule: Q01DX009 (ip), vehicle: saline with Tween-80
[3] = dose: 50.0 mg/kg/injection, schedule: Q01DX009 (ip), vehicle: Klucel (hydroxypropylcellulose) (HPC)
[4] = dose: 100.0 mg/kg/injection, schedule: Q01DX009 (ip), vehicle: Klucel (hydroxypropylcellulose) (HPC)
[5] = dose: 200.0 mg/kg/injection, schedule: Q01DX009 (ip), vehicle: Klucel (hydroxypropylcellulose) (HPC)
[6] = dose: 100.0 mg/kg/injection, schedule: Q04DX003 (ip), vehicle: saline with Tween-80
[7] = dose: 200.0 mg/kg/injection, schedule: Q04DX003 (ip), vehicle: saline with Tween-80
[8] = dose: 400.0 mg/kg/injection, schedule: Q04DX003 (ip), vehicle: saline with Tween-80
[9] = dose: 50.0 mg/kg/injection, schedule: Q01DX009 (ip), vehicle: saline
[10] = dose: 60.0 mg/kg/injection, schedule: Q01DX005 (ip), vehicle: saline with Tween-80

Measured: T/C

Cc1cccc2c(Nc3ccc(NS(C)(=O)=O)cc3)c3ccccc3nc12
active: dose: 7.5 mg/kg/injection, schedule: Q01DX009 (ip), vehicle: saline with Tween-80 166 % of control | dose: 33.0 mg/kg/injection, schedule: Q04DX003 (ip), vehicle: saline with Tween-80 168 % of control | [1] 163 % of control | dose: 75.0 mg/kg/injection, schedule: Q04DX003 (ip), vehicle: saline with Tween-80 163 % of control and 181 % of control | dose: 150.0 mg/kg/injection, schedule: Q04DX003 (ip), vehicle: saline with Tween-80 181 % of control
inactive: dose: 0.53 mg/kg/injection, schedule: Q01DX009 (ip), vehicle: saline 111 % of control | dose: 0.8 mg/kg/injection, schedule: Q01DX009 (ip), vehicle: saline 124 % of control | dose: 300.0 mg/kg/injection, schedule: Q04DX003 (ip), vehicle: saline with Tween-80 122 % of control

Cc1ncc(C(=O)c2cc(Cl)ccc2O)cn1
inactive: dose: 100.0 mg/kg/injection, schedule: Q04DX003 (ip), vehicle: saline 100 % of control | dose: 200.0 mg/kg/injection, schedule: Q04DX003 (ip), vehicle: saline 110 % of control | dose: 400.0 mg/kg/injection, schedule: Q04DX003 (ip), vehicle: saline 100 % of control

CC(C)N(C(C)C)P1(=S)N(C(C)(C)C)N=NN1C(C)(C)C
inactive: dose: 50.0 mg/kg/injection, schedule: Q01DX005 (ip), vehicle: Klucel (hydroxypropylcellulose) (HPC) 91 % of control | dose: 100.0 mg/kg/injection, schedule: Q01DX005 (ip), vehicle: Klucel (hydroxypropylcellulose) (HPC) 101 % of control | dose: 200.0 mg/kg/injection, schedule: Q01DX005 (ip), vehicle: Klucel (hydroxypropylcellulose) (HPC) 91 % of control

COc1ccc(C/C=N/O)c(OC)c1
inactive: dose: 12.5 mg/kg/injection, schedule: Q01DX009 (ip), vehicle: other 91 % of control | dose: 25.0 mg/kg/injection, schedule: Q01DX009 (ip), vehicle: other 89 % of control | dose: 100.0 mg/kg/injection, schedule: Q01DX009 (ip), vehicle: other 93 % of control

O=S1(=O)NC(=NC2CCCC2)c2ccccc21
inactive: dose: 50.0 mg/kg/injection, schedule: Q01DX005 (ip), vehicle: saline with Tween-80 111 % of control | dose: 100.0 mg/kg/injection, schedule: Q01DX005 (ip), vehicle: saline with Tween-80 102 % of control | dose: 200.0 mg/kg/injection, schedule: Q01DX005 (ip), vehicle: saline with Tween-80 101 % of control

O=C(O)CSc1nnc(C2CCC(=O)N2Cc2ccccc2)o1 (configuration not stated)
inactive: dose: 100.0 mg/kg/injection, schedule: Q01DX001 (ip), vehicle: saline with Tween-80 99 % of control | dose: 200.0 mg/kg/injection, schedule: Q01DX001 (ip), vehicle: saline with Tween-80 101 % of control | dose: 400.0 mg/kg/injection, schedule: Q01DX001 (ip), vehicle: saline with Tween-80 95 % of control

O=C1C2C3CCC(C2C(=O)N1CO)C1C2C(=O)N(CO)C(=O)C2C31 (configuration not stated)
inactive: dose: 12.5 mg/kg/injection, schedule: Q01DX009 (ip), vehicle: saline with Tween-80 105 % of control | dose: 25.0 mg/kg/injection, schedule: Q01DX009 (ip), vehicle: saline with Tween-80 102 % of control and 116 % of control
active: dose: 50.0 mg/kg/injection, schedule: Q01DX009 (ip), vehicle: saline with Tween-80 166 % of control | [2] 205 % of control and 208 % of control

Cc1cccnc1Nc1ncccc1C
inactive: dose: 60.0 mg/kg/injection, schedule: Q01DX005 (ip), vehicle: saline 102 % of control | dose: 120.0 mg/kg/injection, schedule: Q01DX005 (ip), vehicle: saline 102 % of control | dose: 240.0 mg/kg/injection, schedule: Q01DX005 (ip), vehicle: saline 102 % of control

S=C(Nc1ccc(Cl)c(Cl)c1)Nc1ccccc1SCc1cc(Cl)cc2c1OCOC2
inactive: [3] 96 % of control | [4] 88 % of control | [5] 98 % of control

Cc1cccc(NNC(=S)Nc2ccccc2)c1
inactive: [6] 95 % of control | [7] 100 % of control | [8] 90 % of control

O=C1C=C(Cl)C(=O)C(c2ccc(Cl)cc2)=C1
inactive: dose: 6.25 mg/kg/injection, schedule: Q01DX009 (ip), vehicle: Klucel (hydroxypropylcellulose) (HPC) 100 % of control | dose: 12.5 mg/kg/injection, schedule: Q01DX009 (ip), vehicle: Klucel (hydroxypropylcellulose) (HPC) 96 % of control | [3] 92 % of control

CC1CN=C(c2ccc(NC(=O)c3ccc(C(=O)Nc4ccc(C5=NCC(C)N5)cc4)cc3)cc2)N1 (configuration not stated)
active: dose: 6.25 mg/kg/injection, schedule: Q01DX009 (ip), vehicle: suspension in saline 184 % of control | dose: 10.0 mg/kg/injection, schedule: Q01DX010 (ip), vehicle: saline 209 % of control | dose: 12.5 mg/kg/injection, schedule: Q01DX009 (ip), vehicle: suspension in saline 245 % of control | dose: 15.0 mg/kg/injection, schedule: Q01DX010 (ip), vehicle: saline 231 % of control | dose: 22.0 mg/kg/injection, schedule: Q01DX010 (ip), vehicle: saline 154 % of control | dose: 25.0 mg/kg/injection, schedule: Q01DX009 (ip), vehicle: suspension in saline 294 % of control | dose: 33.0 mg/kg/injection, schedule: Q01DX010 (ip), vehicle: saline 209 % of control | dose: 50.0 mg/kg/injection, schedule: Q01DX009 (ip), vehicle: suspension in saline 166 % of control | dose: 100.0 mg/kg/injection, schedule: Q01DX009 (ip), vehicle: suspension in saline 154 % of control

C=C1CCC(OC(C)=O)C2(C)C(OC(C)=O)CC3OC3(C)C2C(OC(C)=O)C2C(C)C(=O)OC2C1Cl (configuration not stated)
inactive: dose: 25.0 mg/kg/injection, schedule: Q01DX009 (ip), vehicle: Klucel (hydroxypropylcellulose) (HPC) 99 % of control | [3] 97 % of control | [4] 96 % of control | [5] 93 % of control

O=S(=O)(Nc1ccc(O)cc1)c1ccccc1
inactive: dose: 25.0 mg/kg/injection, schedule: Q04DX003 (ip), vehicle: saline with Tween-80 110 % of control | [1] 100 % of control | [2] 108 % of control | [6] 107 % of control | dose: 200.0 mg/kg/injection, schedule: Q01DX009 (ip), vehicle: saline with Tween-80 100 % of control | [7] 100 % of control | dose: 400.0 mg/kg/injection, schedule: Q01DX009 (ip), vehicle: saline with Tween-80 87 % of control | [8] 100 % of control

COCOCC(N)CS(C)=O (configuration not stated)
inactive: dose: 50.0 mg/kg/injection, schedule: Q01DX005 (ip), vehicle: water 105 % of control | dose: 100.0 mg/kg/injection, schedule: Q01DX005 (ip), vehicle: water 97 % of control | dose: 200.0 mg/kg/injection, schedule: Q01DX005 (ip), vehicle: water 102 % of control

O=S(=O)(CCNCCCCC1CCCCC1)SCCNCCCCC1CCCCC1
inactive: dose: 6.25 mg/kg/injection, schedule: Q01DX005 (ip), vehicle: Klucel (hydroxypropylcellulose) (HPC) 100 % of control | dose: 12.5 mg/kg/injection, schedule: Q01DX005 (ip), vehicle: Klucel (hydroxypropylcellulose) (HPC) 101 % of control | dose: 25.0 mg/kg/injection, schedule: Q01DX005 (ip), vehicle: Klucel (hydroxypropylcellulose) (HPC) 95 % of control

O=C1OCCN1/N=C\c1ccccc1
inactive: [9] 94 % of control | dose: 100.0 mg/kg/injection, schedule: Q01DX009 (ip), vehicle: saline 87 % of control | dose: 200.0 mg/kg/injection, schedule: Q01DX009 (ip), vehicle: saline 90 % of control

CC1CC(C)NC(N=S(=O)(O)c2ccc(N)cc2)[N-]1.[Ag+] (configuration not stated)
inactive: [3] 106 % of control | [4] 100 % of control | [5] 94 % of control

O=C(O)c1c(Br)c(Br)c(Br)c(Br)c1-c1c2ccc(=O)cc-2oc2cc(O)ccc12
inactive: [10] 101 % of control | dose: 120.0 mg/kg/injection, schedule: Q01DX005 (ip), vehicle: saline with Tween-80 105 % of control | dose: 240.0 mg/kg/injection, schedule: Q01DX005 (ip), vehicle: saline with Tween-80 101 % of control

CCCCCCCCCC[N+]1([O-])CCCCC1
inactive: [9] 97 % of control

CCOC(OCC)c1ccc([N+](=O)[O-])cc1
inactive: [6] 106 % of control | [7] 100 % of control | [8] 117 % of control

COC1=Nc2ccccc2S(=O)(=O)C=C1
inactive: dose: 15.0 mg/kg/injection, schedule: Q01DX005 (ip), vehicle: saline with Tween-80 101 % of control | dose: 30.0 mg/kg/injection, schedule: Q01DX005 (ip), vehicle: saline with Tween-80 104 % of control | [10] 116 % of control and 119 % of control
